Measurements as given in patent publication US10004730B2, “Small molecules targeting androgen receptor nuclear localization and/or level in prostate cancer” (University of Pittsburgh-Of the Commonwealth System of …, priority 2011, dated 2018).

Key:
Format in all cases: cell-based
GFP-GR = target: T1, GFP-GR (Homo sapiens, UniProt P04150); assay: GFP-GR nuclear localization in transfected C4-2 cells; conditions: co-treated with 0.5 μM Dexamethasone, 24 hours
T1 construct: expressed in transfected cells; host or cells: C4-2
Description: FIG. 7. The effect of SID 14730725 and SID 3712502 on nuclear localization of GFP-ER (Top panel) and GFP-GR (Bottom panel) in C4-2 cells. C4-2 cells were transfected with GFP-ER or GFP-GR overnight. The following day the cells were treated with different concentrations (uM) of the small molecules. The cells transfected with GFP-GR were co-treated with 0.5 μM Dexamethasone. Cells were imaged 24 hours after the treatment with the small molecules.

PC3 cells = assay: Cell survival, crystal violet staining, PC3; conditions: 48 hrs
Description: (§1) FIGS. 8A and 8B. Effect of SID 14730725 and SID 3712502 on survival of PC3 (FIG. 8A) and C4-2 cells (FIG. 8B). PC3 or C4-2 cells were plated in 12-well plates at 2,500 cell per well in RPMI 1640 complete medium. After 24 hrs, the cells were treated with SID 14730725 or SID 3712502 at the indicated concentrations for 48 hrs. The wells were washed with PBS thrice and fixed in 0.5% crystal Violet in methanol. C=control; treated with vehicle DMSO.

C4-2 cells = assay: Cell survival, crystal violet staining, C4-2; conditions: 48 hrs
Description: as §1

PSA = assay: Western blot of AR target PSA in prostate cancer cells
Description: FIGS. 10A and 10B. Down-regulation of the expression of AR and its downstream target PSA by SID 3712502 in C4-2 (FIG. 10A) and LNCaP (FIG. 10B) cells. Cells in RPMI 1640 complete medium were treated with SID 3712502 or vehicle DMSO at the indicated concentrations for 48 hrs. The cells were then harvested in RIPA buffer for Western blot analysis using antibodies for AR, PSA, and GAPDH. GAPDH was included as a loading control.
FIGS. 13A-C. Effect of SID 3712502 on the expression of AR and PSA in 22Rv1 (FIG. 13A) cells. […] The cells in RPMI 1640 complete medium were treated with SID 3712502 or vehicle DMSO at the indicated concentrations (uM) for 48 h. The cells were then harvested in RIPA buffer for Western blot analysis using antibodies for AR, PSA, and GAPDH. GAPDH was included as a loading control. FIG. 13B. SID 3712502 inhibits AR transactivation of PSA-luciferase reporter. C4-2 cells were transfected with PSA6.1-Luc, GFP-AR, and pRL-CMV and then treated with indicated doses of SID 3712502 for 24 hours. FIG. 13C. SID 3712502 inhibits transactivation of PSA-luciferase reporter by AR(1-665), which lacks LBD. […] For luciferase assays, cells were lysed with passive lysis buffer (Promega) and both Firefly and Renilla luciferase activities were read using a Dual-Luciferase Reporter Assay kit (Promega) on a LmaxII384 luminometer (Molecular Devices). […]

[1] = tested on: AR transactivation of PSA-luciferase reporter; assay: PSA-luciferase reporter, full-length AR, C4-2 cells; conditions: 24 hours
Description: (§2) FIGS. 13A-C. Effect of SID 3712502 on the expression of AR and PSA in 22Rv1 (FIG. 13A) cells. […] The cells in RPMI 1640 complete medium were treated with SID 3712502 or vehicle DMSO at the indicated concentrations (uM) for 48 h. The cells were then harvested in RIPA buffer for Western blot analysis using antibodies for AR, PSA, and GAPDH. GAPDH was included as a loading control. FIG. 13B. SID 3712502 inhibits AR transactivation of PSA-luciferase reporter. C4-2 cells were transfected with PSA6.1-Luc, GFP-AR, and pRL-CMV and then treated with indicated doses of SID 3712502 for 24 hours. FIG. 13C. SID 3712502 inhibits transactivation of PSA-luciferase reporter by AR(1-665), which lacks LBD. PC3 cells were transfected with GFP-NAR and PSA6.1 Luc overnight prior to treatment with 10 μM SID 3712502 (SID) or DMSO (C) for 24 hours. For luciferase assays, cells were lysed with passive lysis buffer (Promega) and both Firefly and Renilla luciferase activities were read using a Dual-Luciferase Reporter Assay kit (Promega) on a LmaxII384 luminometer (Molecular Devices). Firefly luciferase values were normalized to Renilla (pRL-CMV) or protein of cell lysates. Plotted values represent averaged normalized Firefly luciferase activities, each performed in triplicate, relative to DMSO control. One-way ANOVA was performed with a Bonferroni's Multiple Comparison posttest *** p<0.0001 (C). […]

AR(1-665) = assay: PSA-luciferase reporter, AR(1-665) lacking LBD, PC3 cells; conditions: 10 μM, 24 hours
Description: as §2

22Rv1 cells = assay: BrdU incorporation, 22Rv1; conditions: 22Rv1, 48 hrs
Description: (§3) FIGS. 14A-F. Effect of SID 3712502 at indicated concentrations on BrdU incorporation in cultured AR-positive LNCaP (FIG. 14A), C4-2 (FIG. 14B), 22Rv1 (FIG. 14C), LAPC4 (FIG. 14D) cells, and AR-negative DU145 (FIG. 14E) and PC3 (FIG. 14F) cells. Cells were plated in 12-well plates at 2,500 cell per well in RPMI 1640 complete medium. After 24 hrs, the cells were treated with SID 3712502 at the indicated concentrations for 48 hrs and BrdU incorporation was assayed according to manufacturer's instructions (Invitrogen BrdU staining kit; catalog #: 93-3943). The percentage of BrdU-positive cells was determined and then normalized to generate relative BrdU index. Ctrl=DMSO control.

LAPC4 cells = assay: BrdU incorporation, LAPC4; conditions: LAPC4, 48 hrs
Description: as §3

DU145 cells = assay: BrdU incorporation, DU145; conditions: DU145, up to 50 uM, 48 hrs
Description: as §3

[2] = tested on: C4-2, LNCaP, LAPC-4, PC3 and COS-1 cell lines; assay: Cytotoxicity in a panel of cultured cell lines
Description: The screen identified ˜30 candidate small molecules that can disrupt GFP-AR nuclear localization in the C4-2 stably-transfected cell line. They were tested further to verify they can indeed disrupt AR nuclear localization in C4-2 cells and to determine whether the inhibition of nuclear localization of GFP-AR is mediated through a general inhibition of nuclear import machinery. […] Also, the candidate small molecules were tested for their cytotoxicity using a panel of cultured cell lines.
Once the candidate small molecules were identified, they were tested if they indeed can inhibit androgen-independent nuclear localization of GFP-AR and endogenous AR in the C4-2 cells. Also, these agents were tested to see if they are cytotoxic in several different cell lines, including the AR-positive prostate cancer cell lines C4-2, LNCaP, LAPC-4 and AR-negative cell lines PC3 and COS-1 (FIG. 8). These assays led to the identification of 3 agents that specifically target androgen-independent AR nuclear localization in prostate cancer cells and have minimal cytotoxicity on other types of cells.

T1 sequence (P04150 whole entry): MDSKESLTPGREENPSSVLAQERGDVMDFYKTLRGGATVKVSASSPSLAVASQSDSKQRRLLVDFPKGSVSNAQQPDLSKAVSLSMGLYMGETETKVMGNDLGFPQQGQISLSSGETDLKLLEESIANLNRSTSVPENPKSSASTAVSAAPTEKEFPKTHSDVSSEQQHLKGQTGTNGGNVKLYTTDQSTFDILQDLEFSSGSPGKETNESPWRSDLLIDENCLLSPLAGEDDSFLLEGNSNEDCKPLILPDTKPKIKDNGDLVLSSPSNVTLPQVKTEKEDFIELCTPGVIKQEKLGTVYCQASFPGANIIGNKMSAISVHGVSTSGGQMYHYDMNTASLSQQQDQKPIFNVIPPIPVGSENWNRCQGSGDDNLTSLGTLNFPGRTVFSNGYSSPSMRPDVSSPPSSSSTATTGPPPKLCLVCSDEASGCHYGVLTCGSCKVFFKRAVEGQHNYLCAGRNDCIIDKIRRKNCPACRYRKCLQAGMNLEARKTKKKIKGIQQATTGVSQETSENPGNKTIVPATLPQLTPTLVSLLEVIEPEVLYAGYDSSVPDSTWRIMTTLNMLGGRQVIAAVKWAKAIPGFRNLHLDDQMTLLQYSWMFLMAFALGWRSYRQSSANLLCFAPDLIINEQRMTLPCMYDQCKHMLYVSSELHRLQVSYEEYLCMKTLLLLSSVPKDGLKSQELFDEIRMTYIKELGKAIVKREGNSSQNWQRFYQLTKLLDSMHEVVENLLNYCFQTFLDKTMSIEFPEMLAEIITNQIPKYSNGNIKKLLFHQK

For Cc1cccc(N2CCN(C(=O)CSCc3c(C)noc3C)CC2)c1C [SID 3712502, 2-[(3,5-dimethyl-1,2-oxazol-4-yl)methylsulfanyl]-1-[4-(2,3-dimethylphenyl)piperazin-1-yl]ethanone], the “localization of GFP-GR” value (GFP-GR) was “no effect”, the cytotoxicity (PC3 cells) was “little or no cytotoxicity” and the cytotoxicity (C4-2 cells) was “little or no cytotoxicity”. For the same compound, the “AR-target gene PSA expression” value (PSA; 2 uM, 48 h, C4-2 and 22Rv1 cells) was “significantly inhibited”, the PSA expression (PSA; LNCaP cells, 48 hrs) was “Down-regulation” and the “transactivation activity of full-length AR (PSA-luciferase)” value [1] was “can inhibit the transactivation activity”. For the same compound, the “transactivation activity of AR(1-665) (PSA-luciferase)” value (AR(1-665)) was “can inhibit the transactivation activity”, the “proliferation (BrdU incorporation)” value (22Rv1 cells) was “inhibited the proliferation” and the “proliferation (BrdU incorporation)” value (LAPC4 cells) was “inhibited the proliferation”. For the same compound, the “proliferation (BrdU incorporation)” value (DU145 cells) was “no detectable effect” and the “cytotoxicity to various cultured cells” value [2] was “little or no cytotoxicity”.
